Reference: patent US8791048B2, “Herbicidal compositions comprising 4-amino-3-chloro-5-fluoro-6-(4-chloro-2-fluoro-3-methoxyphenyl) pyridine-2-carboxylic acid or a derivative thereof and clomazone” (Dow Agrosciences LLC, priority 2012, dated 2014)

Experiments:
Type in all cases: in vivo
[1] = system: CYPRO Cyperus rotundus L. nutsedge, purple; test: In-water applied greenhouse trial, weed control in transplanted paddy rice
Method: (§1) Results in Examples I and II are greenhouse trial results.
(§2) Weed seeds or nutlets of the desired test plant species were planted in puddled soil (mud) prepared by mixing a shredded, non-sterilized mineral soil (50.5 percent silt, 25.5 percent clay, and 24 percent sand, with a pH of about 7.6 and an organic matter content of about 2.9 percent) and water at a 1:1 volumetric ratio. The prepared mud was dispensed in 365 mL aliquots into 16-ounce (oz.) non-perforated plastic pots with a surface area of 86.59 square centimeters (cm^2) leaving a headspace of 3 centimeters (cm) in each pot. Rice seeds were planted in Sun Gro MetroMix® 306 planting mixture, which typically has a pH of 6.0 to 6.8 and an organic matter content of about 30 percent, in plastic plug trays. Seedlings at the second or third leaf stage of growth were transplanted into 860 mL of mud contained in 32-oz. non-perforated plastic pots with a surface area of 86.59 cm^2 4 days prior to herbicide application. The paddy was created by filling the headspace of the pots with 2.5 to 3 cm of water. When required to ensure good germination and healthy plants, a fungicide treatment and/or other chemical or physical treatment was applied. The plants were grown for 4-22 days in a greenhouse with an approximate 14 h photoperiod which was maintained at about 29° C. during the day and about 26° C. during the night. Nutrients were added as Osmocote® (17:6:10, N:P:K+minor nutrients) at 2 g per 16-oz. pot and 4 g per 32-oz. pot. Water was added on a regular basis to maintain the paddy flood, and supplemental lighting was provided with overhead metal halide 1000-Watt lamps as necessary. The plants were employed for testing when they reached the first through fourth true leaf stage.
(§3) Treatments consisted of the acid or esters of 4-amino-3-chloro-5-fluoro-6-(4-chloro-2-fluoro-3-methoxy-phenyl)pyridine-2-carboxylic acid (compound A) each formulated as an SC (suspension concentrate) and various herbicidal components alone and in combination. Forms of compound A were applied on an acid equivalent basis.
(§4) Other herbicidal components were applied on an active ingredient basis and consisted of clomazone formulated as Command® 3ME.
(§5) Treatment requirements for each compound or herbicidal component were calculated based upon the rates being tested, the concentration of active ingredient or acid equivalent in the formulation, an application volume of 2 mL per component per pot, and an application area of 86.59 cm^2 per pot.
(§6) For formulated compounds, a measured amount was placed in an individual 100 or 200 mL glass vial and was dissolved in a volume of 1.25% (v/v) Agri-Dex® crop oil concentrate to obtain application solutions.
(§7) Applications were made by injecting appropriate amounts of the application solutions with a pipetter, individually and sequentially, into the aqueous layer of the paddy. Control plants were treated in the same manner with the solvent blank. Applications were made so that all treated plant material received the same concentrations of acetone and crop oil concentrate.
(§8) The treated plants and control plants were placed in a greenhouse as described above and water was added as needed to maintain a paddy flood. After approximately 3 weeks the condition of the test plants as compared with that of the untreated plants was determined visually and scored on a scale of 0 to 100 percent where 0 corresponds to no injury or growth inhibition and 100 corresponds to complete kill.
(§9) Colby's equation was used to determine the herbicidal effects expected from the mixtures (Colby, S. R. 1967. Calculation of the synergistic and antagonistic response of herbicide combinations. Weeds 15:20-22.).
(§10) The following equation was used to calculate the expected activity of mixtures containing two active ingredients, A and B: Expected=A+B−(A×B/100)
(§11) A=observed efficacy of active ingredient A at the same concentration as used in the mixture. […]

[2] = system: CYPDI Cyperus difformis L. sedge, smallflower umbrella; test: as above
Method: as §1, §2, §3, §4, §5, §6, §7, §8, §9, §10, §11

[3] = system: SCPMA Bolboschoenus maritimus (L.) Palla clubrush, sea; test: as above
Method: as §1, §2, §3, §4, §5, §6, §7, §8, §9, §10, §11

[4] = system: DIGSA Digitaria sanguinalis (L.) Scop.; crabgrass, large; test: Postemergence foliar-applied greenhouse trial, weed control in direct-seeded rice
Source text: as §1
(§12) Seeds or nutlets of the desired test plant species were planted in a soil matrix prepared by mixing a loam or sandy loam soil (e.g., 28.6 percent silt, 18.8 percent clay, and 52.6 percent sand, with a pH of about 5.8 and an organic matter content of about 1.8 percent) and calcareous grit in an 80 to 20 ratio. The soil matrix was contained in plastic pots with a volume of 1 quart and a surface area of 83.6 square centimeters (cm^2). When required to ensure good germination and healthy plants, a fungicide treatment and/or other chemical or physical treatment was applied. The plants were grown for 8-22 days in a greenhouse with an approximate 14 h photoperiod which was maintained at about 29° C. during the day and 26° C. during the night. Nutrients (Peters Excel® 15-5-15 5-Ca 2-Mg and iron chelate) were applied in the irrigation solution as needed and water was added on a regular basis. Supplemental lighting was provided with overhead metal halide 1000-Watt lamps as necessary. The plants were employed for testing when they reached the first through fourth true leaf stage.
(§13) Treatments consisted of the acid or esters of 4-amino-3-chloro-5-fluoro-6-(4-chloro-2-fluoro-3-methoxy-phenyl)pyridine-2-carboxylic acid (Compound A), each formulated as an SC (suspension concentrate), and various herbicidal components alone and in combination. Forms of compound A were applied on an acid equivalent basis.
(§14) Other herbicidal components were applied on an active ingredient basis and consisted of clomazone formulated as Command® 3ME. Treatment requirements were calculated based upon the rates being tested, the concentration of active ingredient or acid equivalent in the formulation, and a 12 mL application volume at a rate of 187 L/ha.
(§15) For treatments comprised of formulated compounds, measured amounts of compounds were placed individually in 25 mL glass vials and diluted in a volume of 1.25% (v/v) Agri-Dex® crop oil concentrated to obtain 12× stock solutions. […] Application solutions were prepared by adding an appropriate amount of each stock solution (e.g., 1 mL) and diluted to the appropriate final concentrations with the addition of 10 mL of an aqueous mixture of 1.25% (v/v) crop oil concentrate so that the final spray solutions contained 1.25+/−0.05% (v/v) crop oil concentrate.
(§16) All stock solutions and applications solutions were visually inspected for compound compatibility prior to application. Spray solutions were applied to the plant material with an overhead Mandel track sprayer equipped with a 8002E nozzles calibrated to deliver 187 L/ha over an application area of 0.503 m^2 at a spray height of 18 to 20 inches (46 to 50 cm) above average plant canopy height. Control plants were sprayed in the same manner with the solvent blank.
(§17) The treated plants and control plants were placed in a greenhouse as described above and watered by sub-irrigation to prevent wash-off of the test compounds. After approximately 3 weeks, the condition of the test plants as compared with that of the untreated plants was determined visually and scored on a scale of 0 to 100 percent where 0 corresponds to no injury or growth inhibition and 100 corresponds to complete kill.
as §9, §10
(§18) A=observed efficacy of active ingredient A at the same concentration as used in the mixture.
(§19) B=observed efficacy of active ingredient B at the same concentration as used in the mixture.

[5] = system: IPOHE Ipomoea hederacea Jacq.; morningglory, ivyleaf; test: as above
Source text: as §1, §12, §13, §14, §15, §16, §17, §9, §10, §18, §19

[6] = system: ECHCO Echinochloa colona (L.) Link; junglerice; test: as above
Source text: as §1, §12, §13, §14, §15, §16, §17, §9, §10, §18, §19

[7] = system: LEFCH Leptochloa chinensis (L.) Nees; sprangletop, Chinese; test: as above
Source text: as §1, §12, §13, §14, §15, §16, §17, §9, §10, §18, §19

[8] = system: ECHCG Echinochloa crus-galli (L.) Beauv.; barnyardgrass; test: as above
Source text: as §1, §12, §13, §14, §15, §16, §17, §9, §10, §18, §19

[9] = Compound A Acid 0 gae/ha, Clomazone 112 gai/ha
[10] = Compound A Acid 0 gae/ha, Clomazone 224 gai/ha
[11] = Compound A Acid 0 gae/ha, Clomazone 448 gai/ha
[12] = Compound A Benzyl Ester 0 gae/ha, Clomazone 112 gai/ha
[13] = Compound A Benzyl Ester 0 gae/ha, Clomazone 56 gai/ha
[14] = Compound A Benzyl Ester 0 gae/ha, Clomazone 224 gai/ha
[15] = Compound A Acid 8.75 gae/ha, Clomazone 0 gai/ha
[16] = Compound A Acid 17.5 gae/ha, Clomazone 0 gai/ha
[17] = Compound A Acid 16 gae/ha, Clomazone 0 gai/ha
[18] = Compound A Acid 4.38 gae/ha, Clomazone 0 gai/ha
[19] = Compound A Benzyl Ester 8 gae/ha, Clomazone 0 gai/ha
[20] = Compound A Benzyl Ester 16 gae/ha, Clomazone 0 gai/ha
[21] = Compound A Benzyl Ester 32 gae/ha, Clomazone 0 gai/ha
[22] = Compound A Benzyl Ester 4.38 gae/ha, Clomazone 0 gai/ha
[23] = Compound A Benzyl Ester 17.5 gae/ha, Clomazone 0 gai/ha

CC1(C)CON(Cc2ccccc2Cl)C1=O [Clomazone, 2-[(2-chlorophenyl)methyl]-4,4-dimethyl-3-isoxazolidinone]
Visual Weed Control (%) - 21 DAA Obs [1, 9]: 0% | Visual Weed Control (%) - 21 DAA Obs ([1]; Compound A Benzyl Ester 0 gae/ha, Clomazone 448 gai/ha): 0% | Visual Weed Control (%) - 21 DAA Obs [2, 10]: 20% | Visual Weed Control (%) - 21 DAA Obs [2, 11]: 40% | Visual Weed Control (%) - 22 DAA Obs [3, 11]: 25% | Visual Weed Control (%) - 21 DAA Obs [3, 12]: 0% | Visual Weed Control (%) - 19 DAA Obs ([3]; Compound A Benzyl Ester 0 gae/ha, Clomazone 670 gai/ha): 0% | Visual Weed Control (%) - 19 DAA Obs ([4]; Compound A Acid 0 gae/ha, Clomazone 56 gai/ha): 0% | Visual Weed Control (%) - 19 DAA Obs [4, 9]: 0% | Visual Weed Control (%) - 19 DAA Obs [4, 10]: 0% | Visual Weed Control (%) - 19 DAA Obs [5, 9]: 20% | Visual Weed Control (%) - 19 DAA Obs [5, 10]: 20% | Visual Weed Control (%) - 19 DAA Obs [6, 13]: 10% | Visual Weed Control (%) - 19 DAA Obs [6, 12]: 10% | Visual Weed Control (%) - 19 DAA Obs [6, 14]: 10% | Visual Weed Control (%) - 19 DAA Obs ([7]; Table 1, Compound A Acid 0 gae/ha, Clomazone 56 gai/ha): 0% | Visual Weed Control (%) - 19 DAA Obs ([7]; Table 1, Compound A Acid 0 gae/ha, Clomazone 112 gai/ha): 0% | Visual Weed Control (%) - 19 DAA Obs ([7]; Table 1, Compound A Acid 0 gae/ha, Clomazone 224 gai/ha): 15% | Visual Weed Control (%) - 19 DAA Obs ([7]; Table 2, Compound A Benzyl Ester 0 gae/ha, Clomazone 56 gai/ha): 0% | Visual Weed Control (%) - 19 DAA Obs ([7]; Table 2, Compound A Benzyl Ester 0 gae/ha, Clomazone 112 gai/ha): 0% | Visual Weed Control (%) - 19 DAA Obs ([7]; Table 2, Compound A Benzyl Ester 0 gae/ha, Clomazone 224 gai/ha): 15% | Visual Weed Control (%) - 19 DAA Obs [8, 13]: 10% | Visual Weed Control (%) - 19 DAA Obs [8, 12]: 10% | Visual Weed Control (%) - 19 DAA Obs [8, 14]: 10%

COc1c(Cl)ccc(-c2nc(C(=O)O)c(Cl)c(N)c2F)c1F [Compound A Acid, 4-amino-3-chloro-6-(4-chloro-2-fluoro-3-methoxyphenyl)-5-fluoropyridine-2-carboxylic acid]
Visual Weed Control (%) - 21 DAA Obs [1, 15]: 0% | Visual Weed Control (%) - 21 DAA Obs [1, 16]: 30% | Visual Weed Control (%) - 21 DAA Obs ([1]; Compound A Acid 35 gae/ha, Clomazone 0 gai/ha): 85% | Visual Weed Control (%) - 21 DAA Obs [2, 17]: 30% | Visual Weed Control (%) - 22 DAA Obs [3, 17]: 0% | Visual Weed Control (%) - 22 DAA Obs ([3]; Compound A Acid 32 gae/ha, Clomazone 0 gai/ha): 0% | Visual Weed Control (%) - 22 DAA Obs ([3]; Compound A Acid 64 gae/ha, Clomazone 0 gai/ha): 30% | Visual Weed Control (%) - 19 DAA Obs [4, 18]: 30% | Visual Weed Control (%) - 19 DAA Obs [5, 18]: 0% | Visual Weed Control (%) - 19 DAA Obs [5, 15]: 10% | Visual Weed Control (%) - 19 DAA Obs [7, 16]: 55%

COc1c(Cl)ccc(-c2nc(C(=O)OCc3ccccc3)c(Cl)c(N)c2F)c1F [Compound A Benzyl Ester]
Visual Weed Control (%) - 21 DAA Obs [1, 19]: 70% | Visual Weed Control (%) - 21 DAA Obs [1, 20]: 95% | Visual Weed Control (%) - 21 DAA Obs [1, 21]: 90% | Visual Weed Control (%) - 21 DAA Obs [3, 22]: 0% | Visual Weed Control (%) - 19 DAA Obs [3, 19]: 0% | Visual Weed Control (%) - 21 DAA Obs ([3]; Compound A Benzyl Ester 8.75 gae/ha, Clomazone 0 gai/ha): 0% | Visual Weed Control (%) - 19 DAA Obs [3, 20]: 0% | Visual Weed Control (%) - 21 DAA Obs [3, 23]: 0% | Visual Weed Control (%) - 19 DAA Obs [3, 21]: 0% | Visual Weed Control (%) - 19 DAA Obs [6, 22]: 65% | Visual Weed Control (%) - 19 DAA Obs [7, 23]: 30% | Visual Weed Control (%) - 19 DAA Obs [8, 22]: 55%
